Measurements reported in PubChem BioAssay AID256 (DTP/NCI, 2004).
“And” between values parts separate entries of the source, which are not always exact repeats. Identical values can stand only once. Inconclusive results and toxic doses are left out.

Test system: CD2F1 mice, L1210 leukemia ip, survival T/C
Test: NCI In Vivo Anticancer Drug Screen. Data for tumor model L1210 Leukemia (intraperitoneal) in CD2F1 (CDF1) mice
Details: higher = longer survival
Procedure, shortened: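 In this screen, transplantable tumors were grown in mice given either the compound or its vehicle. Results were expressed as the treated measurement relative to the control measurement.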

[1] = endpoint: mean survival time, dose: 25.0 mg/kg/injection, schedule: Q04DX002 (ip), vehicle: saline with Tween-80
[2] = endpoint: mean survival time, dose: 50.0 mg/kg/injection, schedule: Q04DX002 (ip), vehicle: saline with Tween-80
[3] = endpoint: mean survival time, dose: 100.0 mg/kg/injection, schedule: Q04DX002 (ip), vehicle: saline with Tween-80
[4] = endpoint: mean survival time, dose: 100.0 mg/kg/injection, schedule: Q04DX003 (ip), vehicle: saline with Tween-80
[5] = endpoint: mean survival time, dose: 200.0 mg/kg/injection, schedule: Q04DX003 (ip), vehicle: saline with Tween-80
[6] = endpoint: mean survival time, dose: 400.0 mg/kg/injection, schedule: Q04DX003 (ip), vehicle: saline with Tween-80
[7] = endpoint: mean survival time, dose: 50.0 mg/kg/injection, schedule: Q01DX009 (ip), vehicle: saline with Tween-80
[8] = endpoint: mean survival time, dose: 100.0 mg/kg/injection, schedule: Q01DX009 (ip), vehicle: saline with Tween-80

SMILES: CC(C)CC(N)C(=O)O (stereo not drawn) (tested in a mixture with another compound)
- T/C (endpoint: median survival time, dose: 3.13 mg/kg/injection, schedule: Q04DX002 (ip), vehicle: saline): 111 % of control and 108 % of control
- T/C (endpoint: median survival time, dose: 6.25 mg/kg/injection, schedule: Q04DX002 (ip), vehicle: saline): 105 % of control and 100 % of control and 111 % of control
- T/C (endpoint: median survival time, dose: 12.5 mg/kg/injection, schedule: Q04DX002 (ip), vehicle: saline): 100 % of control and 105 % of control
- T/C (endpoint: median survival time, dose: 25.0 mg/kg/injection, schedule: Q04DX002 (ip), vehicle: saline): 100 % of control and 105 % of control
- T/C (endpoint: median survival time, dose: 50.0 mg/kg/injection, schedule: Q04DX002 (ip), vehicle: saline): 111 % of control and 100 % of control and 108 % of control
- T/C (endpoint: median survival time, dose: 100.0 mg/kg/injection, schedule: Q04DX002 (ip), vehicle: saline): 105 % of control
- T/C (endpoint: median survival time, dose: 200.0 mg/kg/injection, schedule: Q04DX002 (ip), vehicle: saline): 108 % of control
- T/C (endpoint: median survival time, dose: 400.0 mg/kg/injection, schedule: Q04DX002 (ip), vehicle: saline): 96 % of control

SMILES: C(=N\Nc1nc2ccccc2s1)/c1ccc(/C=N/Nc2nc3ccccc3s2)cc1
- T/C (endpoint: mean survival time, dose: 100.0 mg/kg/injection, schedule: Q04DX003 (ip), vehicle: Klucel (hydroxypropylcellulose) (HPC)): 92 % of control
- T/C (endpoint: mean survival time, dose: 200.0 mg/kg/injection, schedule: Q04DX003 (ip), vehicle: Klucel (hydroxypropylcellulose) (HPC)): 92 % of control
- T/C (endpoint: mean survival time, dose: 400.0 mg/kg/injection, schedule: Q04DX003 (ip), vehicle: Klucel (hydroxypropylcellulose) (HPC)): 94 % of control

SMILES: CN(C)N=Nc1ccc(C(N)=O)cc1
- T/C (endpoint: mean survival time, dose: 18.75 mg/kg/injection, schedule: Q01DX009 (ip), vehicle: Klucel (hydroxypropylcellulose) (HPC)): 112 % of control
- T/C (endpoint: mean survival time, dose: 150.0 mg/kg/injection, schedule: Q01DX009 (ip), vehicle: Klucel (hydroxypropylcellulose) (HPC)): 109 % of control
- T/C (endpoint: median survival time, dose: 12.5 mg/kg/injection, schedule: Q01DX005 (ip), vehicle: saline with Tween-80): 105 % of control
- T/C (endpoint: median survival time, dose: 25.0 mg/kg/injection, schedule: Q01DX005 (ip), vehicle: saline with Tween-80): 113 % of control
- T/C (endpoint: median survival time, dose: 36.0 mg/kg/injection, schedule: Q01DX005 (ip), vehicle: saline with Tween-80): 123 % of control and 110 % of control
- T/C (endpoint: median survival time, dose: 36.0 mg/kg/injection, schedule: Q01DX009 (ip), vehicle: saline with Tween-80): 116 % of control
- T/C (endpoint: median survival time, dose: 60.0 mg/kg/injection, schedule: Q01DX005 (ip), vehicle: saline with Tween-80): 113 % of control
- T/C (endpoint: median survival time, dose: 100.0 mg/kg/injection, schedule: Q01DX009 (ip), vehicle: saline with Tween-80): 166 % of control
- T/C (endpoint: median survival time, dose: 167.0 mg/kg/injection, schedule: Q01DX005 (ip), vehicle: saline with Tween-80): 157 % of control
- T/C (endpoint: median survival time, dose: 167.0 mg/kg/injection, schedule: Q01DX009 (ip), vehicle: saline with Tween-80): 176 % of control
- T/C (endpoint: median survival time, dose: 278.0 mg/kg/injection, schedule: Q01DX005 (ip), vehicle: saline with Tween-80): 96 % of control
- T/C (endpoint: median survival time, dose: 278.0 mg/kg/injection, schedule: Q01DX009 (ip), vehicle: saline with Tween-80): 98 % of control

SMILES: O=C(O)/C=C(/C(=O)O)c1cccn1Cc1ccccc1
- T/C [1]: 93 % of control
- T/C [2]: 101 % of control
- T/C [3]: 86 % of control and 87 % of control

SMILES: Cc1ccc(Cl)cc1NS(=O)(=O)c1cccc([N+](=O)[O-])c1
- T/C [4]: 98 % of control
- T/C [5]: 106 % of control
- T/C [6]: 88 % of control

SMILES: C=CC1CN2CCC1CC2C(O)c1ccnc2ccc(OC)cc12 (stereo not drawn)
- T/C (endpoint: mean survival time, dose: 18.75 mg/kg/injection, schedule: Q01DX009 (ip), vehicle: saline with Tween-80): 105 % of control
- T/C (endpoint: mean survival time, dose: 37.5 mg/kg/injection, schedule: Q01DX009 (ip), vehicle: saline with Tween-80): 101 % of control
- T/C (endpoint: mean survival time, dose: 75.0 mg/kg/injection, schedule: Q01DX009 (ip), vehicle: saline with Tween-80): 103 % of control

SMILES: Cc1ccc(C)c(C(O)C2CC2)c1 (stereo not drawn)
- T/C (endpoint: mean survival time, dose: 100.0 mg/kg/injection, schedule: Q01DX009 (ip), vehicle: saline): 96 % of control
- T/C (endpoint: mean survival time, dose: 200.0 mg/kg/injection, schedule: Q01DX009 (ip), vehicle: saline): 100 % of control
- T/C (endpoint: mean survival time, dose: 400.0 mg/kg/injection, schedule: Q01DX009 (ip), vehicle: saline): 102 % of control

SMILES: c1csc(C[N+]23CN4CN(CN(C4)C2)C3)c1
- T/C (endpoint: median survival time, dose: 12.5 mg/kg/injection, schedule: Q01DX009 (ip), vehicle: saline): 103 % of control
- T/C (endpoint: median survival time, dose: 25.0 mg/kg/injection, schedule: Q01DX009 (ip), vehicle: saline): 107 % of control
- T/C (endpoint: median survival time, dose: 50.0 mg/kg/injection, schedule: Q01DX009 (ip), vehicle: saline): 107 % of control
- T/C (endpoint: median survival time, dose: 100.0 mg/kg/injection, schedule: Q01DX009 (ip), vehicle: saline): 108 % of control
- T/C (endpoint: median survival time, dose: 200.0 mg/kg/injection, schedule: Q01DX009 (ip), vehicle: saline): 101 % of control
- T/C (endpoint: median survival time, dose: 400.0 mg/kg/injection, schedule: Q01DX009 (ip), vehicle: saline): 109 % of control

SMILES: CCOC(=O)C1C(C(=O)OCC)C(C)(C)C1N(C)C (stereo not drawn)
- T/C [7]: 107 % of control
- T/C [8]: 98 % of control
- T/C (endpoint: mean survival time, dose: 200.0 mg/kg/injection, schedule: Q01DX009 (ip), vehicle: saline with Tween-80): 98 % of control

SMILES: CN(C)N1C(=O)c2ccccc2C1=O
- T/C (endpoint: mean survival time, dose: 100.0 mg/kg/injection, schedule: Q04DX003 (ip), vehicle: other): 96 % of control
- T/C (endpoint: mean survival time, dose: 200.0 mg/kg/injection, schedule: Q04DX003 (ip), vehicle: other): 104 % of control
- T/C (endpoint: mean survival time, dose: 400.0 mg/kg/injection, schedule: Q04DX003 (ip), vehicle: other): 98 % of control

SMILES: O=C(O)CCCCCCCCCO
- T/C (endpoint: mean survival time, dose: 100.0 mg/kg/injection, schedule: Q01DX001 (ip), vehicle: saline with Tween-80): 91 % of control
- T/C (endpoint: mean survival time, dose: 200.0 mg/kg/injection, schedule: Q01DX001 (ip), vehicle: saline with Tween-80): 87 % of control
- T/C (endpoint: mean survival time, dose: 400.0 mg/kg/injection, schedule: Q01DX001 (ip), vehicle: saline with Tween-80): 86 % of control

SMILES: CC1(C)N=C(N)N=C(N)N1c1cccc(CCCCc2ccc(S(=O)(=O)F)cc2)c1
- T/C (endpoint: mean survival time, dose: 25.0 mg/kg/injection, schedule: Q01DX009 (ip), vehicle: saline): 105 % of control

SMILES: COC(=O)/C=C/C(=O)NC(N)=O
- T/C (endpoint: mean survival time, dose: 6.25 mg/kg/injection, schedule: Q04DX003 (ip), vehicle: saline): 91 % of control
- T/C (endpoint: mean survival time, dose: 12.5 mg/kg/injection, schedule: Q04DX003 (ip), vehicle: saline): 113 % of control
- T/C (endpoint: mean survival time, dose: 25.0 mg/kg/injection, schedule: Q04DX003 (ip), vehicle: saline): 100 % of control

SMILES: CCCCCCCCCCC(C)c1ccc(S(=O)(=O)O)cc1 (stereo not drawn)
- T/C (endpoint: mean survival time, dose: 50.0 mg/kg/injection, schedule: Q01DX009 (ip), vehicle: saline sonified): 97 % of control
- T/C (endpoint: mean survival time, dose: 100.0 mg/kg/injection, schedule: Q01DX009 (ip), vehicle: saline sonified): 97 % of control
- T/C (endpoint: mean survival time, dose: 200.0 mg/kg/injection, schedule: Q01DX009 (ip), vehicle: saline sonified): 102 % of control

SMILES: CN1CC2C(O)CCC1CC2O (stereo not drawn)
- T/C (endpoint: mean survival time, dose: 100.0 mg/kg/injection, schedule: Q04DX002 (ip), vehicle: saline): 105 % of control
- T/C (endpoint: mean survival time, dose: 200.0 mg/kg/injection, schedule: Q04DX002 (ip), vehicle: saline): 90 % of control

SMILES: COC(CN(CC(OC)OC)c1ncnc2nc[nH]c12)OC
- T/C (endpoint: mean survival time, dose: 25.0 mg/kg/injection, schedule: Q01DX005 (ip), vehicle: other): 93 % of control
- T/C (endpoint: mean survival time, dose: 50.0 mg/kg/injection, schedule: Q01DX005 (ip), vehicle: other): 91 % of control
- T/C (endpoint: mean survival time, dose: 100.0 mg/kg/injection, schedule: Q01DX005 (ip), vehicle: other): 98 % of control
- T/C (endpoint: mean survival time, dose: 200.0 mg/kg/injection, schedule: Q01DX005 (ip), vehicle: other): 98 % of control
- T/C (endpoint: mean survival time, dose: 400.0 mg/kg/injection, schedule: Q01DX005 (ip), vehicle: other): 96 % of control

SMILES: Nc1cccc2cc3ccccc3[n+]([O-])c12
- T/C [4]: 104 % of control
- T/C [5]: 108 % of control
- T/C [6]: 95 % of control

SMILES: N.N.N.N.O=C([O-])C([O-])C(O)C(=O)[O-].O=[N+]([O-])[O-].[Co+3] (stereo not drawn)
- T/C [1]: 104 % of control
- T/C [2]: 110 % of control
- T/C [3]: 110 % of control

SMILES: Cc1cc(C)c(NC(=O)c2ccccc2Cl)c(C)c1
- T/C [4]: 97 % of control
- T/C [5]: 110 % of control
- T/C [6]: 97 % of control

SMILES: CCCCSC#N
- T/C (endpoint: mean survival time, dose: 7.5 mg/kg/injection, schedule: Q01DX009 (ip), vehicle: saline with Tween-80): 95 % of control
- T/C (endpoint: mean survival time, dose: 15.0 mg/kg/injection, schedule: Q01DX009 (ip), vehicle: saline with Tween-80): 100 % of control
- T/C (endpoint: mean survival time, dose: 30.0 mg/kg/injection, schedule: Q01DX009 (ip), vehicle: saline with Tween-80): 91 % of control

SMILES: CCNc1nc(NCC)nc(SC)n1
- T/C [7]: 100 % of control
- T/C [8]: 89 % of control
- T/C [4]: 100 % of control
- T/C [5]: 97 % of control

SMILES: O=[As](O)(CC(O)COc1ccccc1)c1cccc(Cl)c1 (stereo not drawn)
- T/C (endpoint: mean survival time, dose: 6.25 mg/kg/injection, schedule: Q04DX003 (ip), vehicle: saline with Tween-80): 103 % of control
- T/C (endpoint: mean survival time, dose: 12.5 mg/kg/injection, schedule: Q04DX003 (ip), vehicle: saline with Tween-80): 107 % of control
- T/C (endpoint: mean survival time, dose: 25.0 mg/kg/injection, schedule: Q04DX003 (ip), vehicle: saline with Tween-80): 100 % of control
